The results in this text go back to patent US20150273088A1 (Board of Regents, The University of Texas System, priority 2014, published 2015).

In experiment [1] the test system is NHA cells expressing IDH1 R132H. As to the kind of experiment: Soft agar colony assay. The experiment is classed as cell-based, human. To be noted: IDH1 R132H astrocytes. The text has this:
Soft agar assay. A bottom layer of 0.6% soft agar with complete DMEM and 10% FBS was set in 6-well plates and allowed to solidify. Approximately 8,000 cells were then suspended in 0.4% soft agar and plated on top. Colonies were allowed to develop over 3-4 weeks and stained with crystal violet.

In experiment [2] the test system is PDAC cells Panc1 and MiaPaca2. The experiment in a line: GC-MS of glutamine, glutamate and αKG in PDAC cells. The experiment is classed as cell-based. To be noted: 300 μM, 48 hours. How it is done: (§1) GC-MS analysis. Metabolite extraction from cultured cells was performed as described previously by Figueroa et al. (2010). Briefly, cells were rinsed in ice cold PBS and rapidly quenched with 80% methanol spiked with 3-hydroxy-1,5-pentanedioic-2,2,3,4,4-d5 acid (CDN Isotopes, Quebec Canada) as an internal standard. Extracts were then incubated at −80° C. for 20 minutes, sonicated on ice, centrifuged at 14,000×g for 20 minutes at 4° C. to clear precipitate proteins, and supernatants transferred to vials for drying under N2. Derivatizing reagent (MSTFA (N-methyl-N-(trimethylsilyl)trifluoroacetamide):pyridine:acetonitrile 1:1:2) was added to the vials, which were then heated at 70° C. for 15 minutes.
(§2) Derivatized samples were analyzed on an Agilent 7890A gas chromatograph interfaced to an Agilent 5975C mass spectrometer. The GC column used for the study was a HP-5MS (30 m, 0.25 mm i.d., 0.25 μm film coating). A linear temperature gradient was used. The initial temperature of 80° C. was held for 2 minute and increased to 300° C. at 10° C./minute. The temperature was held at 300° C. for 2 minutes. The samples were run by electron ionization (EI) and the source temperature, electron energy, and emission current were 200° C., 70 eV, and 300 μA, respectively. The injector and transfer line temperatures were 250° C. 3-Hydroxy-1,5-pentanedioic-2,2,3,4,4-d5 acid was used as the internal standard in SIM mode for quantitation of 2-hydroxyglutaric acid. Quantitation was carried out by monitoring the ions at m/z 347 (glutamine and αKG), 348 (glutamate), 349 (2-hydroxyglutaric acid), and 354 (3-hydroxy-1,5-pentanedioic-2,2,3,4,4-d5).

Experiment [3] relates to PDAC cells Panc1 and MiaPaca2. The experiment in a line: Growth of PDAC cells. The experiment is classed as cell-based. The source says:
(§3) Cell culture, transfection, and generation of stable cell lines. HT1080, HEK293T, Panc1, and MIA PaCa-2 cells were obtained from the American Type Culture Collection (ATCC). Normal human astrocytes (NHA) immortalized with E6/E7/hTERT were a kind gift from Dr. Russell O. Pieper (University of California, San Francisco). All cells tested negative for mycoplasma infection. HT1080 cells were authenticated by genotyping for IDH1 and were confirmed to harbor a heterozygous IDH1 R132C mutation by Sanger sequencing of genomic DNA products. The remaining cell lines were not further authenticated. HEK293T, NHA, PANC-1, and MIA Paca-2 cells were maintained with complete DMEM containing 10% fetal bovine serum (FBS) and 1% penicillin/streptomycin (P/S). HT1080 cells were maintained in αMEM containing 10% FBS and 1% P/S. Glutamine-free DMEM (Life Technologies) was supplemented with 10% FBS and 1% P/S and spiked with varying amounts of L-glutamine (Cellgro) for glutamine growth curves.

Experiment [4] relates to PDAC cells Panc1 and MiaPaca2. As to the kind of experiment: Sensitivity to H2O2, viability by Alamar Blue. The experiment is classed as cell-based.
Source text: as §3
On the technique in general: Resazurin is reduced to fluorescent resorufin, in cell work by metabolically active cells.

Experiment [5] deals with NHA cells expressing IDH1 R132H or wild type IDH1. As to the kind of experiment: Histone lysine methylation by Western blot in immortalized NHA cells. The experiment is classed as cell-based, human. How it is done:
Histone extraction and Western blot analysis. For extraction of total cellular protein, cells were lysed in RIPA buffer (150 mM NaCl, 50 mM Tris, 5 mM EDTA, 1% NP-40, 0.1% SDS, 0.5% sodium deoxycholate, pH 7.4), supplemented with protease inhibitor cocktail (Roche), sodium orthovanadate (1 mM), and PMSF (1 mM). Whole-cell lysates were normalized for protein content by BCA assay (Pierce). Histone extraction was performed using an EpiQuik™ Total Histone Extraction Kit (Epigentek) and extracted protein was quantified using a Bradford assay.
Proteins were resolved by SDS-PAGE, transferred to a PVDF membrane and probed with the following antibodies: IDH1 (Origene, TA500610), 6× His (Abcam, ab1187), H3K9Me2 (Cell Signaling, 4658p), H3K9Me3 (Abcam, ab8898), H3K27Me3 (Millipore, 07-449), H3K79Me2 (Cell Signaling, 9757p), total H3 (Cell Signaling, 4499p), and Actin. Secondary anti-mouse and anti-rabbit horseradish peroxidase-conjugated IgG antibodies were used for detection.
A general note: Immunoblotting shows a protein as a band on a membrane.

The test system of another experiment is HT1080 cells. As to the kind of experiment: GC-MS quantification of 2HG and upstream metabolites in HT1080 cells. The experiment is classed as cell-based, human. On the procedure:
as §1, §2

For `CCCOc1ccccc1-c1nc2nn[nH]c2c(=O)[nH]1` [Zaprinast, 5-(2-propoxyphenyl)-1H-[1,2,3]triazolo[4,5-d]pyrimidin-7(4H)-one], the “Soft agar colony formation” value in experiment [1] was “reduced colony formation in IDH1 R132H astrocytes down to the level of vector and wild-type cells”. In addition, in experiment [2], the Cellular glutamine entry is given as “increase”, the “Cellular pool of glutamate” value is listed as “significant reductions” and the “Cellular pool of αKG” value is on record as “significant reductions”. In addition, the “Growth of PDAC cells” value in experiment [3] (100 μM and 300 μM Zaprinast) is listed as “significantly reduced”. Moreover, the “Growth of PDAC cells with glutamate supplementation” value in experiment [3] (Zaprinast with 5 mM glutamate) is “restoration of growth”. The “Sensitivity to oxidative damage after adding back glutamate” value in experiment [4] (Zaprinast with 5 mM glutamate) was “nearly completely abolished the increased sensitivity to oxidative damage”. Moreover, the “Susceptibility to hydrogen peroxide stress versus vehicle” value in experiment [4] (cells pretreated with Zaprinast) was “significantly more susceptible”. In experiment [5] (IDH1 WT expressing astrocytes, 300 μM), the “Methylation levels of H3K9Me2 or H3K9Me3” value is given as “did not produced such a marked reduction”. For the same compound, the “Histone methylation marks (H3K9Me2, H3K9Me3, H3K27Me3, H3K79Me2)” value in experiment [5] (astrocytes expressing R132H IDH1) is listed as “marked reduction toward baseline methylation levels”. Further, the “Cellular 3-phosphoglycerate (3PG) level” value in the experiment with HT1080 cells (HT1080, 300 μM Zaprinast or 10 μM BPTES) is reported as “did not cause an elevation”. In addition, in the experiment on HT1080 cells (HT1080, 48 hours), the Cellular alpha-ketoglutarate level entry is “reduced”, the Cellular glutamate level result is reported as “reduced”, the “Intracellular 2HG by GC-MS” value is “modulated in a concentration-dependent manner” and the Intracellular glutamine level result is recorded as “unaffected”.
